# Entries after “also recorded” stand apart in the source; their conditions may differ.
# Columns and labels:
# [1] = tested on: Toll-like receptor 4 (Tlr4) mRNA in IEC-6 cells; assay: Tlr4 mRNA and microRNA expression in IEC-6 cells treated with I3C; type: cell-based, rat
# Description: Rat intestinal epithelial cell line IEC-6 was treated with aryl hydrocarbon receptor (AHR) agonist indole-3-carbinol (13C) for 4 and 6 hours, and then the expression of Toll-like receptor 4 (Tlr4) mRNA and the microRNAs, which have been reported to down-regulate Tlr4 transcription, were quantified, respectively. Referring now to FIG. 22, the mRNA expression of Tlr4 was quantified in IEC-6 cells treated with AHR agonist […] for 6 hours. Data are represented as mean±SEM; *p<0.05 between indicated groups; each dot represents an individual sample. […] Referring now to FIG. 23, the expression of let-7i, miR-223, and miR-146b, which are microRNAs known to inhibit Tlr4 mRNA expression, was quantified in IEC-6 cells treated with AHR agonist […] for 4 hours. Data are represented as mean±SEM; *p<0.05 between indicated groups; each dot represents an individual sample.
# [2] = tested on: TLR4 signaling in the intestinal epithelium; assay: LPS-induced TLR4 signaling and Cypla1 in the intestinal mucosa of mice; type: in vivo, mouse
# [3] = tested on: AHR signaling pathway; assay: Maternal I3C administration, Cypla1 mRNA in ileum of offspring with NEC; type: in vivo, mouse; conditions: mums 25 mg/kg oral gavage E7 to P7
# Description: The pups whose mums received 25 mg/kg indole-3-carbinol (13C) by oral gavage starting from the embryonic age 7 (E7) of the fetus until the postnatal day 7 (P7) were included in maternal […]-rich group, while the pups whose mums received vehicle were included in maternal […]-free group. Necrotizing enterocolitis (NEC) was induced in 7-day-old mouse pups by gavage feeding and hypoxia exposure for 4 days. The ileum was harvested at the end of experiment and the mRNA expression of target genes was analyzed by qPCR. Referring now to FIG. 7, the mRNA expression of Cypla1, the down-stream gene of AHR signaling, was quantified in the ileum of experimental NEC models. Data are represented as mean±SEM; *p<0.05 between indicated groups; each dot represents an individual mouse.
# [4] = tested on: AHR activation and TLR4 signaling in enteroids; assay: Mouse enteroids: Cypla1 induction and TLR4 signaling; type: cell-based; conditions: I3C 200 μM
# Text: AHR activation by I3C or breast milk limits TLR4 signaling in the intestinal epithelium (FIG. 14). In seeking to investigate how AHR signaling attenuates NEC severity, whether AHR activation could limit the degree of TLR4 signaling in the gut was investigated. To do so, enteroids were derived from wild-type mice, which are intestinal cultures containing all cell lineages derived from intestinal crypts, as have been described.
# [5] = tested on: mice with NEC; assay: Experimental NEC model in 7-day-old mice (formula gavage, hypoxia, NEC stool bacteria), NEC severity; type: in vivo, mouse; conditions: for NEC severity: I3C oral 50 mg/kg/day, 50 mg/kg/day
# Text: The development of NEC requires TLR4 signaling in the intestinal epithelium. In seeking to understand the biological underpinnings of NEC, it has been discovered that activation within the intestinal epithelium of the receptor for gram-negative bacteria, namely toll-like receptor 4 (TLR4), is critical for the development of NEC. […] Further, mice that lack TLR4 in the intestinal epithelium (herein referred to as TLR4^ΔIEC mice) or globally (TLR4^−/−) were generated and then subjected to the well validated NEC model at 7 days of age. Mice were gavaged with formula, i.e., Similac Advance infant formula (Abbott Nutrition):Esbilac canince milk replacer (PetAb) in a 2:1 ratio at 50 μL/g every 3 hours, 10 mins hypoxia (5% O2 95% N2 in a Billups-Rothenberg chamber) twice daily for four days, and oral gavage of bacteria (1×10^5 cfu/mL) obtained from the stool of a patient with severe NEC. This experimental protocol induces patchy small intestinal necrosis, intestinal edema, and mucosal disruption very similar to human NEC in wild-type mice (FIG. 10), while mice lacking TLR4 in the intestinal epithelium (TLR4^ΔIEC mice) or globally (TLR4^−/−) were protected from NEC development. Mechanistically, TLR4 activation in the intestinal epithelium leads to an increase in apoptosis and a reduction in proliferation within the intestinal epithelium which leads to mucosal injury (FIG. 11). […]
# Another aspect of the presently disclosed subject matter was to identify novel agonists of AHR which could be orally administered to prevent or treat experimental NEC, and which have greater potency and pharmacokinetic properties than the dietary-derived ligand I3C. To do so, an AHR-luciferase screen in intestinal epithelial cells (IEC-6 cells) was developed, then compound libraries were screened, and validation in vitro and in vivo using readouts of AHR activation by measuring the expression of Cyp1 was performed. […]
# [6] = tested on: mice with NEC; assay: I3C to the pregnant mother (50 mg/kg/day), AHR activation and NEC in the pup; type: in vivo, mouse
# Text: The administration of the AHR ligand I3C to the pregnant mother prevents NEC in the newborn mouse (FIG. 16). […] Another aspect of the presently disclosed subject matter is to develop a diet rich in AHR ligands that could be administered to the mother, and protect against the development of NEC. […]
# [7] = I3C 50 mg/kg/d to pregnant mice
structure (smiles),measurement,setting,value
"OCc1c[nH]c2ccccc12 [I3C, indole-3-carbinol]",expression of let-7i,[1]; 4 hours,significantly increased
same,expression of miR-146b,[1]; 4 hours,significantly increased
same,expression of miR-223,[1]; 4 hours,significantly increased
same,mRNA expression of Tlr4,[1]; 6 hours,significantly reduced the expression of Tlr4 mRNA
same,enterocyte apoptosis after TLR4 activation,"[2]; intestinal mucosa, I3C, LPS",reversed the deleterious effects of TLR4 activation on enterocyte apoptosis; also recorded: reverses LPS induced apoptosis
same,mucosal healing / proliferation after TLR4 activation,"[2]; intestinal mucosa, I3C, LPS",improved mucosal healing; also recorded: reverses LPS induced apoptosis and impaired proliferation
same,TLR4-induced (LPS) cytokine induction in the intestinal mucosa,"[2]; wild type mice, I3C 50 mg/kg, LPS 5 mg/kg",reduced TLR4-induced (LPS 5 mg/kg) cytokine induction; also recorded: reduces TLR4 signaling; also recorded: reduces LPS-induced IL-6
same,Cypla1 expression,"[2]; wild-type mice, I3C 50 mg/kg",induced Cypla1 expression; also recorded: increases Cypla1
same,mRNA expression of Cypla1 (AHR signaling) in offspring,[3],significantly activated the AHR signaling pathway
same,Cypla1 induction,[4]; enteroids from wild-type mice,significantly induced the downstream molecule Cypla1; also recorded: induces Cypla1
same,TLR4 signaling (cytokine/TNF induction),"[4]; enteroids, conditioned media from NEC stool bacteria",reduced TLR4 signaling; also recorded: reduces TNF
same,NEC severity,[5]; AHR-/- mice,but not AHR^−/− mice; also recorded: does not protect
same,expression of proinflammatory gene IL-1,[5]; mice afflicted with NEC,reduced the expression of proinflammatory gene IL-1
same,NEC severity,[5]; wild-type mice,reduces NEC severity; also recorded: limits NEC severity
same,NEC severity in the pup,[6]; [7],significantly reduced NEC severity; also recorded: prevents NEC in the newborn mouse pup
same,cytokine (IL-6) induction in the pup,[6]; [7],reduced cytokine induction; also recorded: decreased IL-6 expression
same,enterocyte apoptosis in the pup,[6]; [7],reduced enterocyte apoptosis
same,mucosal injury / histology in the pup,[6]; [7],reduced; also recorded: improved histology
same,proliferation in the pup intestinal mucosa,[6]; [7],improved proliferation
same,Cypla1 expression in the intestine (AHR activation in utero),"[6]; I3C oral 50 mg/kg/day to the pregnant mother, 50 mg/kg/day",induced the downstream gene Cypla1 in the pup intestine; also recorded: leads to expression of Cypla1 in the intestinal epithelium of both the mother and the fetus

# Source: US11458141B2, “Aryl hydrocarbon receptor (AhR) agonists for the prevention and treatment of inflammatory disorders” (The Johns Hopkins University, priority 2017, dated 2022)
